Reference: ChEMBL document CHEMBL4177689, “In silico identification and in vivo characterization of small molecule therapeutic hypothermia mimetics” (Bioorg Med Chem, 2017)
Active and inactive are the calls of the source. No cut-off for these calls is given here.

What was measured:
Rattus norvegicus [1] = organism: Rattus norvegicus; assay: Activation of CIRBP protein expression in rat R28 cells at 10 uM at 37 degC after 4 days by Western blot; format: functional, cell-based
[2] = Cytotoxicity against rat R28 cells assessed as reduction in cell viability at 250 uM after 4 days by MTS assay; format: cell-based; conditions: 96 h
Rattus norvegicus [3] = assay: Up regulation of CIRBP protein expression in Sprague-Dawley albino rat brain cortex at 20 nmol/kg, ip measured after 4 days post dose by Western blot analysis; format: functional, organism-based
Rattus norvegicus [4] = assay: Up regulation of CIRBP protein expression in Sprague-Dawley albino rat central nervous system at 20 nmol/kg, ip measured after 4 days post dose by Western blot analysis; format: functional, organism-based
Rattus norvegicus [5] = assay: Up regulation of CIRBP protein expression in Sprague-Dawley albino rat retina at 20 nmol/kg, ip measured after 4 days post dose by Western blot analysis; format: functional, organism-based
Rattus norvegicus [6] = assay: Up regulation of CIRBP protein expression in Sprague-Dawley albino rat lung at 20 nmol/kg, ip measured after 4 days post dose by Western blot analysis; format: functional, organism-based
Rattus norvegicus [7] = assay: Up regulation of CIRBP protein expression in Sprague-Dawley albino rat testis at 20 nmol/kg, ip measured after 4 days post dose by Western blot analysis; format: functional, organism-based
Rattus norvegicus [8] = assay: Up regulation of CIRBP protein expression in Sprague-Dawley albino rat heart at 20 nmol/kg, ip measured after 4 days post dose by Western blot analysis; format: functional, organism-based
Rattus norvegicus [9] = assay: Up regulation of CIRBP protein expression in Sprague-Dawley albino rat colon at 20 nmol/kg, ip measured after 4 days post dose by Western blot analysis; format: functional, organism-based
Rattus norvegicus [10] = assay: Up regulation of CIRBP protein expression in Sprague-Dawley albino rat subcutaneous fat tissue at 20 nmol/kg, ip measured after 4 days post dose by Western blot analysis; format: functional, organism-based
Rattus norvegicus [11] = assay: Up regulation of CIRBP protein expression in Sprague-Dawley albino rat pancreas at 20 nmol/kg, ip measured after 4 days post dose by Western blot analysis; format: functional, organism-based
[12] = Cytotoxicity against rat R28 cells assessed as reduction in cell viability at 10 uM after 4 days by MTS assay; format: cell-based; conditions: 96 h

Structure (SMILES) | Activity (Rattus norvegicus [1]) | further results
CC(=O)N1C(=O)C2(NCC(C)N2)c2ccccc21 (stereo not given) | inactive | 
O=C(O)c1cc(-n2cc(-c3cccc(O)c3)nn2)ccc1O | inactive | 
CC1(C)N=C(N)N=C(N)N1c1cccc(CN)c1 | inactive | 
N=C(N)NC(=N)Nc1ccc(O)cc1 | inactive | 
COCCn1cnc2c(SCC(=O)OC)nc(N)nc21 | inactive | 
COC(=O)CSc1nc(N)nc2c1ncn2CC1CC1 | inactive | 
Oc1ccc(-c2cn(-c3ccc(O)c(C(F)(F)F)c3)nn2)cc1 | Active | 
COC(=O)CSc1nc(N)nc2c1ncn2Cc1ccc(OC)cc1 | inactive | 
CCN(CC)CCn1cnc2c(SCC(=O)O)nc(N)nc21 | Active | Activity [2]: Non-Toxic; Activity (Rattus norvegicus [3]): inactive; Activity (Rattus norvegicus [4]): inactive; Activity (Rattus norvegicus [5]): inactive; Activity (Rattus norvegicus [6]): Active; Activity (Rattus norvegicus [7]): Active; Activity (Rattus norvegicus [8]): Active; Activity (Rattus norvegicus [9]): Active; Activity (Rattus norvegicus [10]): Active; Activity (Rattus norvegicus [11]): Active
O=C(/C=C/c1ccc(O)c(O)c1)OC1C(O)CC(OC(=O)/C=C/c2ccc(O)c(O)c2)(C(=O)O)CC1O (stereo not given) |  | Activity [12]: Toxic
Oc1cccc(-c2cn(-c3ccc(O)c(F)c3)nn2)c1 | Active | 
COc1cccc2c1C(=O)c1c(O)c3c(c(O)c1C2=O)CC(O)(/C(C)=N/O)CC3CC1CC(N)C(O)C(C)O1 (stereo not given) |  | Activity [12]: Toxic
COC(=O)CSc1nc(N)nc2c1ncn2Cc1ccccc1 | Active | 
Cc1cc(O)ccc1-n1cc(-c2cccc(O)c2)nn1 | inactive | 
Nc1nc(SCC(=O)O)c2ncn(Cc3ccccc3)c2n1 | inactive | 
O=c1c(O)cccc2cc(O)c(O)c(O)c12 [PURPUROGALLIN] |  | Activity [12]: Toxic
Nc1ncnc2c1ncn2[C@@H]1O[C@H](CO)[C@H](O)[C@@H]1N | inactive | 
COC(=O)C1C[C@@H](O)[C@@H](O)[C@@H](O)C1 (stereo not given in full) | inactive | 
OCc1ncccc1O | inactive | 
NC(=O)Oc1cccc(OC(N)=O)c1 | inactive | 
C=CCn1cnc2c(SCC(=O)OC)nc(N)nc21 | inactive | 
Oc1cc(NCC2CCCCC2)c(O)cc1CNC1CCCCC1 | inactive | 
O=C(NO)[C@@H](Cc1ccccc1)NS(=O)(=O)c1ccc(-n2cc(-c3ccc(Oc4ccccc4)cc3)nn2)cc1 |  | Activity [12]: Toxic
Cc1cc(-n2cc(-c3ccc(O)cc3)nn2)ccc1O | Active | 
COC(=O)CSc1nc(N)nc2c1ncn2CCO | inactive | 
